Results: patent US10869846B2, “N-acetylcysteine amide (NAC amide) in the treatment of diseases and conditions associated with oxidative stress” (SENTIENT LIFESCIENCES, INC., priority 2005, dated 2020)

How the values were obtained:
PC12 cells [1] = assay: MDA measurement in glutamate-exposed cells; assay type: cell-based; conditions: GLU (10 mM) alone, 24 h
Method: MDA measurement: To prepare the solution, 350 μl of straight cell homogenate, 100 μl of 500 ppm BHT (butylated hydroxytoluene), and 550 μl of 10% TCA (trichloroacetic acid) were combined and boiled for 30 min. The tubes were cooled on ice and centrifuged for 10 min at 2500 rpm. Five hundred (500) μl of the supernatant were removed and 500 μl of TBA (thiobarbituric acid) were added. The tubes were boiled again for 30 min, and then cooled on ice. From this solution, 500 μl were removed, added to 1.0 ml of n-butanol, vortexed, and centrifuged for 5 min at 60 g to facilitate a phase separation. The top layer was then filtered through 0.45 μm filters and injected onto a 5 μm C18 column (250×4.6 mm) on a reverse phase HPLC system. The mobile phase consisted of 69.4% 5 mM sodium phosphate buffer (pH=7.0), 30% acetonitrile, and 0.6% THF (tetrahydrofuran). The excitation wavelength was 515 nm; the emission wavelength was 550 nm (Draper H. H. et al., Free Radic Biol Med., 15(4):353-63, 1993).
Cells were plated and grown for 24 hours, and then they were exposed to glutamate (10 mM) in the presence or absence of NAC amide (750 μM). Twenty-four hours later, the cells were harvested and malondialdehyde levels were measured. Values represent means.+−.SD. Statistically different values of *P<0.002 and **P<0.05 were determined, compared to control. ***P<0.05 compared to glutamate-treated group.

PC12 cells [2] = assay: GSH measurement in cells (NPM/HPLC); assay type: cell-based; conditions: GLU (10 mM) alone
Method: Cells were seeded at a density of 80,000 cells/cm^2 on poly-D-lysine coated (0.05 mg/ml) 75 cm^2 flasks (5 ml/flask) for GSH measurement. […] After the incubation period, cells were removed from the cultures and homogenized in serine borate buffer (100 mM Tris-HCl, 10 mM boric acid, 5 mM L-serine, 1 mM DETAPAC, pH 7.4). Twenty (20) μl of the diluted cell homogenate were added to 230 μl of serine borate buffer and 750 μl of NPM (1 mM in acetonitrile). The resulting solutions were incubated at room temperature for 5 min. The reaction was stopped by the addition of 5 μl of 2N HCl. The samples were then filtered through a 0.2 μm Acrodisc filter and injected onto the HPLC system.
[…] Values represent means.+−.SD. Statistically different values of *P<0.05 were determined, compared to control. **P<0.001 compared to glutamate-treated group. ***P<0.05 compared to glutamate-treated group.

mouse = conditions: subcutaneous injection; cited from earlier work

Row | SMILES | MDA Levels (PC12 cells [1]) | GSH Levels (PC12 cells [2]) | toxicity relative to morphine (mouse)
1 | N[C@@H](CCC(=O)O)C(=O)O [GLU, glutamate, reference compound] | 247 ± 26 nM/100 mg protein | 23 ± 4.2 nM/mg protein | –
2 | CN1CC[C@]23c4c5ccc(O)c4O[C@H]2C(=O)C=C[C@H]3[C@H]1C5 [Morphinone, morphinone] | – | – | 9 times
